What was measured:
Test in all cases: in vitro kinase assay (ELISA, Tyr-Glu heteropolymer substrate, […] ATP, […] Triton X-100)
Type in all cases: biochemical
ErbB2 kinase = biological target: T1, ErbB2 kinase (Homo sapiens, UniProt P04626)
T1 construct: recombinant truncated ErbB2 kinase (intracellular domain, lacking the extracellular domain)

ErbB4 kinase = biological target: T2, ErbB4 kinase (Homo sapiens, UniProt Q15303)
T2 construct: recombinant truncated ErbB4 kinase (intracellular domain, lacking the extracellular domain)
T2 sequence (Q15303 676-1308 limits assumed): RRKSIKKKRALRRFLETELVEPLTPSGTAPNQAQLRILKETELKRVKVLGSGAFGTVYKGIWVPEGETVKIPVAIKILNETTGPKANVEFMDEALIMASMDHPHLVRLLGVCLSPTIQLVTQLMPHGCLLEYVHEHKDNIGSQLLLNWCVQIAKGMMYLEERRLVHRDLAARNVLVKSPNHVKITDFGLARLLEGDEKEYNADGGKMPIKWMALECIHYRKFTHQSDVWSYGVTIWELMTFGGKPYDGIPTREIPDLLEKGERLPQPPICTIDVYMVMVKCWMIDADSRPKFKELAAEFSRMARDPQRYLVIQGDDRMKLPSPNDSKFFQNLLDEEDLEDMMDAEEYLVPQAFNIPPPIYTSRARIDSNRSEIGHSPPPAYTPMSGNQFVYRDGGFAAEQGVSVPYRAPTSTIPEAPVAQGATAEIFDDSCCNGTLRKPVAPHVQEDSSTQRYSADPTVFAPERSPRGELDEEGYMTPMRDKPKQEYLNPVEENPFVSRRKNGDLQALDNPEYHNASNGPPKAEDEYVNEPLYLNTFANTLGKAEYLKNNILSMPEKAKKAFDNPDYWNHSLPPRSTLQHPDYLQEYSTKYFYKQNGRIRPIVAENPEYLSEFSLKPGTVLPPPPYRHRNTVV

ErbB1 kinase = biological target: T3, ErbB1 kinase (Homo sapiens, UniProt P00533)
T3 construct: gene EGFR; recombinant truncated ErbB1 kinase (intracellular domain, lacking the extracellular domain)
T3 sequence (P00533 669-1210 limits assumed): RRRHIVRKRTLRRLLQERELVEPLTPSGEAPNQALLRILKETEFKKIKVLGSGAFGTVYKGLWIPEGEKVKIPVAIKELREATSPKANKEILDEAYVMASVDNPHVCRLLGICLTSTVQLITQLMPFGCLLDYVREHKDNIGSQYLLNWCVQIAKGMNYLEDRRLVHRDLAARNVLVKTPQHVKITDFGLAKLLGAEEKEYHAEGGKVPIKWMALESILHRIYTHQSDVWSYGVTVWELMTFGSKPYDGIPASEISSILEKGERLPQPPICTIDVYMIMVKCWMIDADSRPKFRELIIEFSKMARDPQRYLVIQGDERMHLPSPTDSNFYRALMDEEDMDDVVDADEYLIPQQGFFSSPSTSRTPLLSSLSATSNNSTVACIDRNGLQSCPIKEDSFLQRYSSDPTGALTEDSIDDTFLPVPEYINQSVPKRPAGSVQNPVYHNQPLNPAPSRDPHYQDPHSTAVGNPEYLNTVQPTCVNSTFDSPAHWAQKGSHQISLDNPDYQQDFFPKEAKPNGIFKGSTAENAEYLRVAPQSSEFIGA

T1 sequence (P04626 676-1255 limits assumed): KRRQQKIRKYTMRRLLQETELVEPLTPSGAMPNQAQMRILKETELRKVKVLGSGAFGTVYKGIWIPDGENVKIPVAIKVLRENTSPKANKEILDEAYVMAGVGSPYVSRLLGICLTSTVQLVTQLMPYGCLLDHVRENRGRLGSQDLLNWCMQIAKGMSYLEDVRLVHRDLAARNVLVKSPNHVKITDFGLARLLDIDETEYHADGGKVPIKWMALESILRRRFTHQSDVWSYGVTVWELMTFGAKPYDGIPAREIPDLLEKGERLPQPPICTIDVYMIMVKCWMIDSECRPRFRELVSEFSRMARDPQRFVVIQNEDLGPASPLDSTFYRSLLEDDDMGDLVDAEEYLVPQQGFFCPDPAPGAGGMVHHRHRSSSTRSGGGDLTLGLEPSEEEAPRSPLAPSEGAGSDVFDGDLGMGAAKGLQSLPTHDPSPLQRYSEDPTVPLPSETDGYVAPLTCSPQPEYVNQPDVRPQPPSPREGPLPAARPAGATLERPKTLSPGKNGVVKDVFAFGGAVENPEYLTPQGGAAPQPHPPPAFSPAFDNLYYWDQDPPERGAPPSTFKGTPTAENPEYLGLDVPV

Compound: CN1CCN(C2=Nc3cc(Cl)ccc3Nc3ccccc32)CC1 [CLZ, clozapine]
- in vitro kinase assay (ELISA, Tyr-Glu heteropolymer substrate, 4 mM ATP, 0.2% Tr) (ErbB2 kinase): 3 µM
- in vitro kinase assay (ELISA, Tyr-Glu heteropolymer substrate, 4 mM ATP, 0.2% Tr) (ErbB4 kinase): 30 µM
- in vitro kinase assay (ELISA, Tyr-Glu heteropolymer substrate, 4 mM ATP, 0.2% Tr) (ErbB1 kinase): 30 µM

From paper PMC6675791, “Clozapine-dependent inhibition of EGF/neuregulin receptor (ErbB) kinases” (Translational Psychiatry, 2019)
